Source: patent publication US20260265238A1, “COMPOUNDS AND PHARMACEUTICAL COMPOSITIONS THAT DEGRADE SWI/SNF-RELATED MATRIX-ASSOCIATED ACTIN-DEPENDENT REGULATOR OF CHROMATIN SUBFAMILY A” (Plexium, Inc., priority 2023, published 2026)

Columns and labels:
[1] = target: T1, SMARCA4-HiBiT HeLa cells (protein which is expressed from the SMARCA4 gene) (Homo sapiens, UniProt P51532); assay: SMARCA4 degradation assay (HiBiT-fusion HeLa cell line, 24 h, luminescence); assay type: cell-based
T1 construct: protein which is expressed from the SMARCA2 and SMARCA4 genes; host or cells: HeLa (SMARCA4-HiBiT engineered line)
T1 sequence (P51532 whole entry, the tested form may be a part): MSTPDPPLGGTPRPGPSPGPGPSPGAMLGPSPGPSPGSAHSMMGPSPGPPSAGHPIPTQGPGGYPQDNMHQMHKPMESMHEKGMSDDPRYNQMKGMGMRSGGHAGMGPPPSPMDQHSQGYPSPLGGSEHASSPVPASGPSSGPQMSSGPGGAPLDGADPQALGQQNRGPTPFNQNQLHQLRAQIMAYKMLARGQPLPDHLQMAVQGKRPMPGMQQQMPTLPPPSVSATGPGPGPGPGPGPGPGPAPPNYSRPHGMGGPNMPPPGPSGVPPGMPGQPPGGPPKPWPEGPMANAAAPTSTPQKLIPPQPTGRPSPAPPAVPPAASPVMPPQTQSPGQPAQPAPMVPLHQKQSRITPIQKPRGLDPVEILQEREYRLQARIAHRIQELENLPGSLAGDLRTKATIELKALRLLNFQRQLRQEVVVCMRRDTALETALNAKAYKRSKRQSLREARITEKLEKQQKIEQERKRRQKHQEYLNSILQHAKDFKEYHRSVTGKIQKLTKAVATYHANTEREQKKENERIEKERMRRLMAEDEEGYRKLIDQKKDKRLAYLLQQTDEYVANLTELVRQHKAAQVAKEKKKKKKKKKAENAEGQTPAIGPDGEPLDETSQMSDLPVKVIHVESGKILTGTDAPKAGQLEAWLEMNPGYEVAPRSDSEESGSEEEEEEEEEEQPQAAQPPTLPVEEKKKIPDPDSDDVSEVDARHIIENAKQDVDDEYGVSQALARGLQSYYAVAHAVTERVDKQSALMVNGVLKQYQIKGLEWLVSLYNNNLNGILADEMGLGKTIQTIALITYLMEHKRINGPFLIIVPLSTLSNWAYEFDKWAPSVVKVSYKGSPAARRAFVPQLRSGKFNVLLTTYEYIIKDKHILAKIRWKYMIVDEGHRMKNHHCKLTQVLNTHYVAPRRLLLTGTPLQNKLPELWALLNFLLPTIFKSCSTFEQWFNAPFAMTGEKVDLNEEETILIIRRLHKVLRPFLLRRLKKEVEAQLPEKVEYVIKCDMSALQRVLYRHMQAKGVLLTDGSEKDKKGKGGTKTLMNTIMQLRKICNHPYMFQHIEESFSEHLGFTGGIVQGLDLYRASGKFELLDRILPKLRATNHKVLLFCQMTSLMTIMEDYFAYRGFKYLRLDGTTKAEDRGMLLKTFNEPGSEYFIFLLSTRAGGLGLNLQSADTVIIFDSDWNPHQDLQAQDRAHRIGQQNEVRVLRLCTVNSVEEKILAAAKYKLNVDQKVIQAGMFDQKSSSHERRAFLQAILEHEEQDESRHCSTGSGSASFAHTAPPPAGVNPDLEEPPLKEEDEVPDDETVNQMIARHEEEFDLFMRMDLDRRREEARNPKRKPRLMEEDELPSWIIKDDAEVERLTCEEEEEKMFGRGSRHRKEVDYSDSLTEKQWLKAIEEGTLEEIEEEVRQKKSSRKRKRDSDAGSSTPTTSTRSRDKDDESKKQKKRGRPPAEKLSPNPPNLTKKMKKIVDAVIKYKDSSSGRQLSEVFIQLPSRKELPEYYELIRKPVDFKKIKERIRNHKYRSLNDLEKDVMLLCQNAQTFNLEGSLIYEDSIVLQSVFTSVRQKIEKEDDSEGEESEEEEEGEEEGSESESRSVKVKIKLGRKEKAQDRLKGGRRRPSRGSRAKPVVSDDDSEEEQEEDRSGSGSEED
Procedure, shortened: (§1)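 In this 24-hour cellular degradation readout, HiBiT-tagged HeLa lines received compound at up to typically 10 μM down to 300 pM in 10 points. After lysis with LgBiT and substrate, luminescence signals were used to build dose-response curves for DC50.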

[2] = target: T2, SMARCA2-HiBiT HeLa cells (protein which is expressed from the SMARCA2 gene) (Homo sapiens, UniProt P51531); assay: SMARCA2 degradation assay (HiBiT-fusion HeLa cell line, 24 h, luminescence); assay type: cell-based
T2 construct: protein which is expressed from the SMARCA2 and SMARCA4 genes; host or cells: HeLa (SMARCA2-HiBiT engineered line)
T2 sequence (P51531 whole entry, the tested form may be a part): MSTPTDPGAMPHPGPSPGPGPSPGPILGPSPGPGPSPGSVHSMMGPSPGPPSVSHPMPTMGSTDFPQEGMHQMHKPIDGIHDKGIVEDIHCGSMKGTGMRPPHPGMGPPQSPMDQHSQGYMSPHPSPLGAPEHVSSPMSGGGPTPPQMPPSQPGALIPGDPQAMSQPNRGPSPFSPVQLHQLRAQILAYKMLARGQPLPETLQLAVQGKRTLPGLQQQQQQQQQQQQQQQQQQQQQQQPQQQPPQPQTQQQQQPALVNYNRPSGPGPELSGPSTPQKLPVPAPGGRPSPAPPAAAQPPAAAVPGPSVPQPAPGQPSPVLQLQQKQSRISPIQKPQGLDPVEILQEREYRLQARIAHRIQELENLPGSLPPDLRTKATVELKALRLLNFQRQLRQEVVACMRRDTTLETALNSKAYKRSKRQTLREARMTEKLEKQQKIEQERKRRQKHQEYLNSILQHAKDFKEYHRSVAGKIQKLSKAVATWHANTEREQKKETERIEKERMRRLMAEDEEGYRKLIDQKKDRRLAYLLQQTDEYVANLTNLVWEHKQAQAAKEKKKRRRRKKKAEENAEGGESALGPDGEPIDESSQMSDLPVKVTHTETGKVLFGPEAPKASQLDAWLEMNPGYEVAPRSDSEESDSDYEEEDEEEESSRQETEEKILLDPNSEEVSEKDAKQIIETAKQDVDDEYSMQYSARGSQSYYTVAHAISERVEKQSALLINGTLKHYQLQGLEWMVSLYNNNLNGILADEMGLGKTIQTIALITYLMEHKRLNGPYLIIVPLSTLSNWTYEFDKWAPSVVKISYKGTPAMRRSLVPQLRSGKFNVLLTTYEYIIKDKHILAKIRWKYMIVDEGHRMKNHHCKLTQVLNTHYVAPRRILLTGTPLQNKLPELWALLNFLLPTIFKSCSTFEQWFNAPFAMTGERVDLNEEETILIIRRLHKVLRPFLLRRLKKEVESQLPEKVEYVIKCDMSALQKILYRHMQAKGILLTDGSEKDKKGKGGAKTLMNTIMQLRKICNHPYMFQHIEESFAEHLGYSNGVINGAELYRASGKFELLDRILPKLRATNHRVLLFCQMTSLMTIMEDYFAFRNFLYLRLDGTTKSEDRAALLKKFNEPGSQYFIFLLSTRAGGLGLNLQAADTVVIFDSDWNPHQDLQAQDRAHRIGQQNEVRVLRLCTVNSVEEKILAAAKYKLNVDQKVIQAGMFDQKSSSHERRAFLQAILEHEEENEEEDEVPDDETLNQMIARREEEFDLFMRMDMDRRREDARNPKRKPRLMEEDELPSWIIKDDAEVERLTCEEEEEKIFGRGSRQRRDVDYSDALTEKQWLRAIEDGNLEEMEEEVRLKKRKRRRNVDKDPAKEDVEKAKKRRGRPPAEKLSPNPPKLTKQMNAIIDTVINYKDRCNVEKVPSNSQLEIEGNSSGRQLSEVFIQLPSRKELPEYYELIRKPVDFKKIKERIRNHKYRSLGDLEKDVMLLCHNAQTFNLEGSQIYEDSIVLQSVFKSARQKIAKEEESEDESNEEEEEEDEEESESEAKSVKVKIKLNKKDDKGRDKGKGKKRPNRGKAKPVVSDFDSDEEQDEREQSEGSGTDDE
Procedure, shortened: as §1

For CN(C)CC#Cc1nccc(N2C[C@H]3CC[C@@H](C2)[C@H]3Oc2cc(-c3ccccc3O)nnc2N)n1 [Compound P-156, o-{5-[(1R,5S,8r)-3-{2-[3-(dimethylamino)-1-propynyl]-4-pyrimidinyl}-3-azabicyclo[3.2.1]oct-8-yloxy]-6-amino-3-pyridazinyl}phenol], the DC50 [1] was 0.5 to 5 µM, the inhibition at 1 µM [1] was under 30% and the DC50 [2] was 0.05 to 0.5 µM. For the same compound, the “SMARCA2 % Degradation @ 1 μM” value [2] was “++ (++=30-70%)”.

CN(C)CC#Cc1nccc(N2C3CCC2CN(c2cc(-c4ccccc4O)nnc2N)CC3)n1 (stereo not drawn) [Compound P-157, o-[6-amino-5-(9-{2-[3-(dimethylamino)-1-propynyl]-4-pyrimidinyl}-3,9-diazabicyclo[4.2.1]non-3-yl)-3-pyridazinyl]phenol] showed a DC50 [1] of 0.05 to 0.5 µM, an inhibition at 1 µM [1] of 30 to 70% and a DC50 [2] of under 0.05 µM. For the same compound, the “SMARCA2 % Degradation @ 1 μM” value [2] was “++ (++=30-70%)”.

With C/C=C/c1nccc(N2CCCN(c3cc(-c4ccccc4O)nnc3N)CC2)n1 [Compound P-158, o-(6-amino-5-{4-[2-(1-propenyl)-4-pyrimidinyl]-1,4-diazepan-1-yl}-3-pyridazinyl)phenol] the DC50 [1] was 0.05 to 0.5 µM, the inhibition at 1 µM [1] was 30 to 70% and the DC50 [2] was 0.05 to 0.5 µM. For the same compound, the “SMARCA2 % Degradation @ 1 μM” value [2] was “??”.

Compound COC/C=C/c1nccc(N2CCCN(c3cc(-c4ccccc4O)nnc3N)CC2)n1 [Compound P-159, o-(6-amino-5-{4-[2-(3-methoxy-1-propenyl)-4-pyrimidinyl]-1,4-diazepan-1-yl}-3-pyridazinyl)phenol] has a DC50 [1] of 0.05 to 0.5 µM, an inhibition at 1 µM [1] of 30 to 70% and a DC50 [2] of 0.05 to 0.5 µM. For the same compound, the “SMARCA2 % Degradation @ 1 μM” value [2] was “+++ (+++=>70%)”.

In the case of C[C@@H]1CCN(c2cc(-c3ccccc3O)nnc2N)CCN1c1ccnc(C#CCN2C3CCC2COC3)n1 [Compound P-160, o-{5-[(R)-5-methyl-4-(2-{3-(3-oxa-8-azabicyclo[3.2.1]oct-8-yl)-1-propynyl}-4-pyrimidinyl)-1,4-diazepan-1-yl]-6-amino-3-pyridazinyl}phenol], the DC50 [1] was 0.05 to 0.5 µM, the inhibition at 1 µM [1] was 30 to 70% and the DC50 [2] was 0.05 to 0.5 µM. The “SMARCA2 % Degradation @ 1 μM” value [2] was “+++ (+++=>70%)”.

With COCC1CN(CC#Cc2nccc(N3CCN(c4cc(-c5ccccc5O)nnc4N)CC[C@H]3C)n2)CCO1 (stereo partly drawn) [Compound P-161, o-{5-[(R)-4-(2-{3-[2-(methoxymethyl)-4-morpholinyl]-1-propynyl}-4-pyrimidinyl)-5-methyl-1,4-diazepan-1-yl]-6-amino-3-pyridazinyl}phenol] the DC50 [1] was 0.05 to 0.5 µM, the inhibition at 1 µM [1] was 30 to 70% and the DC50 [2] was 0.05 to 0.5 µM. For the same compound, the “SMARCA2 % Degradation @ 1 μM” value [2] was “++ (++=30-70%)”.

COCC1COCCN1CC#Cc1nccc(N2CCN(c3cc(-c4ccccc4O)nnc3N)CC[C@H]2C)n1 (stereo partly drawn) [Compound P-162, o-{5-[(R)-4-(2-{3-[3-(mcthoxymcthyl)-4-morpholinyl]-1-propynyl}-4-pyrimidinyl)-5-methyl-1,4-diazepan-1-yl]-6-amino-3-pyridazinyl}phenol] gave a DC50 [1] of 0.05 to 0.5 µM, an inhibition at 1 µM [1] of 30 to 70% and a DC50 [2] of 0.05 to 0.5 µM. The “SMARCA2 % Degradation @ 1 μM” value [2] was “++ (++=30-70%)”.

Work on C[C@@H]1CCN(c2cc(-c3ccccc3O)nnc2N)CCN1c1ccnc(C=CCN(C)CC(F)F)n1 [Compound P-163, o-{5-[(R)-4-(2-{3-[(2,2-difluoroethyl)-N-methylamino]-1-propenyl}-4-pyrimidinyl)-5-methyl-1,4-diazepan-1-yl]-6-amino-3-pyridazinyl}phenol] yielded a DC50 [1] of 0.05 to 0.5 µM, an inhibition at 1 µM [1] of under 30% and a DC50 [2] of 0.05 to 0.5 µM. The “SMARCA2 % Degradation @ 1 μM” value [2] was “++ (++=30-70%)”.

C[C@@H]1CCN(c2cc(-c3ccccc3O)nnc2N)CCN1c1ccnc(/C=C/CN(C)CCF)n1 [Compound P-164] gave a DC50 [1] of under 0.05 µM, an inhibition at 1 µM [1] of 30 to 70% and a DC50 [2] of under 0.05 µM. The “SMARCA2 % Degradation @ 1 μM” value [2] was “+++ (+++=>70%)”.

Compound CNC/C=C/c1nccc(N2CCN(c3cc(-c4ccccc4O)nnc3N)CC[C@H]2C)n1 [Compound P-165, o-{5-[(R)-5-methyl-4-{2-[3-(methylamino)-1-propenyl]-4-pyrimidinyl}-1,4-diazepan-1-y1]-6-amino-3-pyridaziny1}phenol] has a DC50 [1] of 0.05 to 0.5 µM, an inhibition at 1 µM [1] of 30 to 70% and a DC50 [2] of 0.05 to 0.5 µM. For the same compound, the “SMARCA2 % Degradation @ 1 μM” value [2] was “+++ (+++=>70%)”.

C[C@@H]1CCN(c2cc(-c3ccccc3O)nnc2N)CCN1c1ccnc(/C=C/CN2CCC2)n1 [Compound P-166, o-{5-[(R)-4-{2-[3-(1-azetidinyl)-1-propenyl]-4-pyrimidinyl}-5-methyl-1,4-diazepan-1-yl]-6-amino-3-pyridazinyl}phenol] gave a DC50 [1] of 0.05 to 0.5 µM, an inhibition at 1 µM [1] of over 70% and a DC50 [2] of 0.05 to 0.5 µM. For the same compound, the “SMARCA2 % Degradation @ 1 μM” value [2] was “+++ (+++=>70%)”.

Compound C[C@@H]1CCN(c2cc(-c3ccccc3O)nnc2N)CCN1c1ccnc(/C=C/CN2CCOCC2)n1 [Compound P-167, o-(5-{(R)-5-methyl-4-[2-(3-morpholino-1-propenyl)-4-pyrimidinyl]-1,4-diazepan-1-y1}-6-amino-3-pyridazinyl)phenol] has a DC50 [1] of under 0.05 µM, an inhibition at 1 µM [1] of under 30% and a DC50 [2] of under 0.05 µM. For the same compound, the “SMARCA2 % Degradation @ 1 μM” value [2] was “++ (++=30-70%)”.

Compound C[C@@H]1CCN(c2cc(-c3ccccc3O)nnc2N)CCN1c1ccnc(/C=C/CO)n1 [Compound P-168, o-(5-{(R)-4-[2-(3-hydroxy-1-propenyl)-4-pyrimidinyl]-5-methyl-1,4-diazepan-1-y1}-6-amino-3-pyridazinyl)phenol] has a DC50 [1] of 0.05 to 0.5 µM, an inhibition at 1 µM [1] of over 70% and a DC50 [2] of 0.05 to 0.5 µM. For the same compound, the “SMARCA2 % Degradation @ 1 μM” value [2] was “+++ (+++=>70%)”.

Compound C/C=C/c1nccc(N2CCN(c3cc(-c4ccccc4O)nnc3N)CC[C@H]2C)n1 [Compound P-169, o-(5-{(R)-5-methyl-4-[2-(1-propenyl)-4-pyrimidinyl]-1,4-diazepan-1-yl}-6-amino-3-pyridazinyl)phenol] has a DC50 [1] of 0.05 to 0.5 µM, an inhibition at 1 µM [1] of over 70% and a DC50 [2] of 0.05 to 0.5 µM. The “SMARCA2 % Degradation @ 1 μM” value [2] was “+++ (+++=>70%)”.

With COC/C=C/c1nccc(N2CCN(c3cc(-c4ccccc4O)nnc3N)CC[C@H]2C)n1 [Compound P-170, o-(5-{(R)-4-[2-(3-methoxy-1-propenyl)-4-pyrimidinyl]-5-methyl-1,4-diazepan-1-yl}-6-amino-3-pyridazinyl)phenol] the DC50 [1] was 0.5 to 5 µM, the inhibition at 1 µM [1] was 30 to 70% and the DC50 [2] was 0.05 to 0.5 µM. The “SMARCA2 % Degradation @ 1 μM” value [2] was “++ (++=30-70%)”.

C[C@@H]1CCN(c2cc(-c3ccccc3O)nnc2N)CCN1c1ccnc(/C=C/C2CC2)n1 [Compound P-171, o-(5-{(R)-4-[2-(2-cyclopropylethenyl)-4-pyrimidinyl]-5-methyl-1,4-diazepan-1-yl}-6-amino-3-pyridazinyl)phenol] gave a DC50 [1] of 0.5 to 5 µM, an inhibition at 1 µM [1] of under 30% and a DC50 [2] of 0.05 to 0.5 µM. For the same compound, the “SMARCA2 % Degradation @ 1 μM” value [2] was “++ (++=30-70%)”.

CN(C)CC#Cc1nccc(N2CCCC(c3cc(-c4ccccc4O)nnc3N)CC2)n1 (stereo not drawn) [Compound P-172, o-[6-amino-5-(1-{2-[3-(dimethylamino)-1-propynyl]-4-pyrimidinyl}-4-azepanyl)-3-pyridazinyl]phenol] was tested, and the DC50 [1] was under 0.05 µM, the inhibition at 1 µM [1] was 30 to 70% and the DC50 [2] was under 0.05 µM. The “SMARCA2 % Degradation @ 1 μM” value [2] was “++ (++=30-70%)”.

C[C@@H]1CCN(c2cc(-c3ccccc3O)nnc2N)CCN1c1ccnc(C#CC2CN(CC(F)(F)F)C2)n1 [Compound P-173, o-{5-[(R)-5-methyl-4-(2-{2-[1-(2,2,2-trifluoroethyl)-3-azetidinyl]ethynyl}-4-pyrimidinyl)-1,4-diazepan-1-y1]-6-amino-3-pyridazinyl}phenol] was tested, and the DC50 [1] was 0.05 to 0.5 µM, the inhibition at 1 µM [1] was 30 to 70% and the DC50 [2] was under 0.05 µM. For the same compound, the “SMARCA2 % Degradation @ 1 μM” value [2] was “+++ (+++=>70%)”.
